Legend:
[1] = tested on: HIV-1 envelope-mediated membrane fusion (CHO cells expressing gp160 and Tat with HELA cells expressing CD4 and coreceptors); experiment: Cell-cell fusion assay (syncytia formation); type: cell-based; conditions: 200 nM 5-Helix or 6-Helix mixed with C34 at 100, 166, 190 and 210 nM
Method: Assays were carried out to assess the ability of 5-Helix to interact with the C-region of gp41 and inhibit function of the fusion protein. This inhibition of membrane fusion by 5-Helix and 6-Helix was assessed using a cell-based assay. Proteins 5-Helix and 6-Helix are serially diluted in modified DMEM media with 5% FCS and aliquoted into slide chambers. HELA cells (4×10^4) expressing CD4 and coreceptors and containing a β-galactosidase gene under the control of the Tat promoter are added. CHO cells (2×10^4) expressing gp160 (precursor protein to gp120/gp41) and Tat are also added. The 400 μl miniculture is incubated at 37° C. for 8 to 24 hours; fused cells (syncytia) will transcribe and translate β-galactosidase. The cells are fixed in gluteraldehyde and exposed to X-gal/Fe solution for one hour. Syncytia that contain β-galactosidase turn blue-green. […]
All data in FIGS. 3A-3C were generated using His-tagged 5-Helix (see Example 1). […] Following two days of incubation at 37° C., the cells were harvested in […] lysis buffer (Luciferase Assay System, Promega), of which […] was analyzed per manufacturer's protocol. The IC50 values were calculated by fitting the 5-Helix titration data to a Langmuir function [normalized luciferase activity=1/(1+[5−Helix]/IC50)].

[2] = molecular target: His-tagged C-peptide C37-H6 (C-peptide region of gp41) (Human immunodeficiency virus type 1 group M subtype B, UniProt P04578); conditions: 150 μM C34 added to 16 μM 5-Helix and 30 μM C37-H6
Method: The solution was added to 10 ml of Ni-NTA agarose and incubated at room temperature for 10 minutes. After the unbound supernatant was removed, the beads were washed twice with 1 ml TBS and then eluted with 500 mM imidazole. The Ni-bound and unbound samples were run on a 16.5% Tris-Tricine polyacrylamide gel (Biorad) and stained with Gel-code Blue (Pierce).

[3] = tested on: HIV-1 envelope-mediated membrane fusion (CHO cells expressing gp160 and Tat with HELA cells expressing CD4 and coreceptors); conditions: number of syncytia; Chan et al. 1998; read-out: IC50 of C34 in cell-cell fusion assay; cited from earlier work
[4] = molecular target: HIV gp41 (from gp160, strain not stated in the assay text) (HIV-1); experiment: cell-based or functional assay

In the case of “C34: Peptide corresponding to the C-peptide region of HIV gp41 (W628 to L661); chemically synthesized, no His-tag”, the “Syncytia formation in mixing (competition) experiments (in words)” value [1] is listed as “blocks all syncytia formation”, the “Competition of untagged C-peptide for 5-Helix/C37-H6 precipitation (in words)” value [2] is listed as “substantially reduces the amount of precipitated 5-Helix” and the IC50 [3] is listed as 0.55 ± 0.03 nM.

B1: His-tagged C-peptide C37-H6 (peptide)
peptide: GGHTTWMEWDREINNYTSLIHSLIEESQNQQEKNEQELLGGHHHHHH
modifications: not checked
B1 showed an IC50, cell-cell fusion assay [4] of 1 nM.

From patent US20030082525A1, “Five-Helix protein” (priority 1999, published 2003)
